Results on two compounds are retold here after article PMC3565575 (Bioorganic & medicinal chemistry, 2010).

One test addresses sigma-1 receptor (Cavia porcellus, UniProt Q60492). Briefly: Sigma-1 receptor competitive binding against. Conditions: Sigma 1 K1 values (nM) (± SEM, n=3), R^2 value, guinea pig liver membranes, 10 nM (+)-[3H]-pentazocine, brackets: SEM.
Test [1] deals with SKOV-3 (human ovarian adenocarcinoma). Put plainly: Multi-plex cytotoxicity assay, SKOV-3. The test is classed as cell-based. The following applies: SKOV-3 cells.

Sequence of sigma-1 receptor (Q60492 whole entry): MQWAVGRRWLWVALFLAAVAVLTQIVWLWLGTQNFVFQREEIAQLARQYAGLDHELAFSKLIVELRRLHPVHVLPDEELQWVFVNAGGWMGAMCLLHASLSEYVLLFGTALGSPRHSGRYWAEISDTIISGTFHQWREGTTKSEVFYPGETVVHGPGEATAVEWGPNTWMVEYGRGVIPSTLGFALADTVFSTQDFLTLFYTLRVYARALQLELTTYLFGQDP

By Ki is commonly meant the equilibrium dissociation constant of an inhibitor or competing ligand from its target. High values mean lower affinity, low ones higher affinity. As to `CCCN(Cc1cccc([N+](=O)[O-])c1)C(=O)CCc1ccc(F)cc1` [compound 6, 3-(4-Fluorophenyl)-N-(3-nitrobenzyl)-N-propylpropanamide], on sigma-1 receptor, the inhibitory constant (Ki) is > 100000 nM.

As to `CCCCN(CCCC)CCCc1ccc(F)cc1` [compound 9, N.N-Dibutyl-3-(4-fluorophenyl)propylamine], the “Growth inhibition (in words)” value in test [1] is given as “the only cell line whose growth is inhibited by compound 9”.
